Test results: patent US20240408072A1, “COMPOSITION FOR PREVENTING OR TREATING GRAVES' DISEASE COMPRISING COMPOUND CONTAINING AN IMIDAZOPYRIDINE STRUCTURE AS ACTIVE INGREDIENT” (ESGELBIO INC., priority 2021, published 2024)
“Also recorded” adds a separate entry of the source. Where two headings read alike, the source gives them in different places. Each block holds one compound with its values, some of them ahead of it.

Experiments:
Human MPO = Human MPO (Homo sapiens (Human), UniProt P05164); test: Myeloperoxidase (MPO) inhibition IC50 screening; type: biochemical
From the text: To discover new therapeutics for the treatment of Graves' disease, the inventors screened compounds for inhibition activity against myeloperoxidase (MPO). The screening process is schematically represented in FIG. 1. Use was made of approximately 7,000 compounds for the screening.

HL-60 MPO = HL-60 MPO (Homo sapiens (Human), UniProt P05164); test: HL-60 MPO inhibition, drugs treated to media; type: cell-based
Procedure: The screening of compounds for MPO inhibition activity was conducted in three stages.

[1] = system: TPO (thyroid peroxidase) expression; test: Inhibition of TPO expression in SNU760 cells; type: cell-based; details: 50 uM, SNU760 Human Thyroid cell lines, FIG. 2
Procedure: (§1) To confirm whether the imidazopyridine scaffold-bearing compounds screened in Example 1 could be used as treatments for Graves' disease, SNU760 Human Thyroid cell lines were treated with various concentrations of each compound and then analyzed their ability to inhibit the expression of TPO (thyroid peroxidase) and TG (thyroglobulin).

[2] = system: TG (thyroglobulin) expression; test: Inhibition of TG expression in SNU760 cells; type: cell-based; details: 50 uM, SNU760 Human Thyroid cell lines, FIG. 2
Procedure: as §1

[3] = system: Graves' disease-induced mice; test: Thyroid size in Graves' disease-induced (Ad-TSHR) mice; type: in vivo, BALB/c mice; details: 10 mg/kg daily for three weeks, abdominal cavity, vs Ad-TSHR group, FIG. 7
Procedure: (§2) To create a mouse model with induced Graves' disease, 6-week-old female BALB/c mice were used. The thyroid stimulating hormone receptor (TSHR) expressing adenovirus, Ad-TSHR, was purchased from VectorBuilder (Chicago, USA, www.vectorbuilder.com). […] The virus was injected three times at three-week intervals, totaling nine weeks of injections to induce overexpression of TSHR and thereby cause Graves' disease.
(§3) In the Graves' disease-induced mouse model established in <3-1>, the therapeutic effectiveness of the imidazopyridine scaffold-bearing compounds screened in the present disclosure was evaluated.
(§4) After extracting the thyroid glands from each mouse, the sizes of the thyroids were visually compared, and the concentration of thyroxine (T4) in the blood was analyzed.

[4] = system: Graves' disease-induced mice; test: Serum thyroxine (T4) in Graves' disease-induced (Ad-TSHR) mice; type: in vivo, BALB/c mice; details: 10 mg/kg daily for three weeks, abdominal cavity, FIG. 8
Procedure: as §2, §3, §4
After administering drugs for three weeks to mice in which Graves' disease was induced by the Ad-TSHR virus over nine weeks, the serum was isolated to measure the concentration of thyroxine (T4).

thyroid peroxidase (TPO) = thyroid peroxidase (TPO) (Homo sapiens (Human), UniProt P07202); test: Thyroid peroxidase (TPO) inhibition IC50; type: biochemical; details: Table 3
Sequence of thyroid peroxidase (TPO) (P07202 19-933, species assumed): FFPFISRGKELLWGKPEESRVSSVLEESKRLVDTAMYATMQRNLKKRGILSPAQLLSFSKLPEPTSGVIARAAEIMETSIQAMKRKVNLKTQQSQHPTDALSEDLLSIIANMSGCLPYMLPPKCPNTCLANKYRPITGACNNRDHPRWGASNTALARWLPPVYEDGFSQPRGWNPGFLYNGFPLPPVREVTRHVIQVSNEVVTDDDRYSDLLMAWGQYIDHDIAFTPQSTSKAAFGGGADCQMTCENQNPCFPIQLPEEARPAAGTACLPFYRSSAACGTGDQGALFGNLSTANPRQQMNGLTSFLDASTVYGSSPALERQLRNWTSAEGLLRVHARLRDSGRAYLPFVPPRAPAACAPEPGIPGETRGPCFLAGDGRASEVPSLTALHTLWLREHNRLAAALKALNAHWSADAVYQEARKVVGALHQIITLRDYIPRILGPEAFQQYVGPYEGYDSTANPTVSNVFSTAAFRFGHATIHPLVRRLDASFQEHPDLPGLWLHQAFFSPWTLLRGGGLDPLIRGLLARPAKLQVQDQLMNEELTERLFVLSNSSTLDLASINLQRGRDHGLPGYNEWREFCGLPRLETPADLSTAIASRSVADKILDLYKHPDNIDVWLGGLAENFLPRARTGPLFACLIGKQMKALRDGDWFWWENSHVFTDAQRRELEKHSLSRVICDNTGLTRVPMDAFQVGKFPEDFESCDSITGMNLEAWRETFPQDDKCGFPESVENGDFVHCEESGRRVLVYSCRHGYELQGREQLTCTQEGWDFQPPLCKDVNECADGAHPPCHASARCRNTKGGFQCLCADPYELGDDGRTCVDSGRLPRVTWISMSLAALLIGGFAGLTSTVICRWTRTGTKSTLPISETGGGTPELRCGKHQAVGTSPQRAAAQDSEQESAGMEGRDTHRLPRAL

Sequence of Human MPO (P05164 49-745): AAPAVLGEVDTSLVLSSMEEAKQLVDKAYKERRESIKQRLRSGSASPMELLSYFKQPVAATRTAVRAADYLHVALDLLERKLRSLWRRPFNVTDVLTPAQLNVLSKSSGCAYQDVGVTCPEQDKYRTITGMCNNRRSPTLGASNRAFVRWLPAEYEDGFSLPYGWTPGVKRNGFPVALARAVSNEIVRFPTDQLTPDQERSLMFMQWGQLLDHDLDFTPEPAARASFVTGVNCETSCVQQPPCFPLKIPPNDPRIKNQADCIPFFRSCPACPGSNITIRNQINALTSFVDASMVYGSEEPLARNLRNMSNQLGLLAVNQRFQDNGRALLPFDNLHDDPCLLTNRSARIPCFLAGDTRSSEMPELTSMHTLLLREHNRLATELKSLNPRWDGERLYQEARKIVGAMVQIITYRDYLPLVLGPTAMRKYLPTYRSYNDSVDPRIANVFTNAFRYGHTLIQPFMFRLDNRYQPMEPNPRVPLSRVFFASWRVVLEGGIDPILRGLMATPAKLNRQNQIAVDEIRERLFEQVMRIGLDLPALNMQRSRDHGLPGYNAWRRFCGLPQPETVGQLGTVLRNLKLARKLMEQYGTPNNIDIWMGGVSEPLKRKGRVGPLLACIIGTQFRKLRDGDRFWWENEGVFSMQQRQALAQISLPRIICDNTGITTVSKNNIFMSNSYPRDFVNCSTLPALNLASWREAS
Sequence of HL-60 MPO (P05164 49-745): as above

IC50 (Human MPO; Chemical Library 2nd Screening, MPO, read-out: IC50): 0.021 µM
IC50 (Human MPO; Chemical Library 3rd Screening, read-out: IC50 (uM) (Human MPO)): 0.021 µM
HL-60 MPO Inhibition (%) (treat to media) (HL-60 MPO; 2nd Screening): 0%
inhibition at 25 µM (HL-60 MPO; HL-60, 3rd Screening, 25 uM, read-out: HL-60 MPO Inhibition (%) (25 uM of Drugs are treated to media)): 0%
SMILES: CC(C)OCCn1c(=S)[nH]c(=O)c2[nH]ccc21 [AZD3241]

SMILES: Cc1ccc2nc(-c3cccnc3)c(Nc3ccc4c(c3)OCO4)n2c1 [NE-2-6, N-(2H-1,3-BENZODIOXOL-5-YL)-6-METHYL-2-(PYRIDIN-3-YL) IMIDAZO [1,2-A]PYRIDIN-3-AMINE]
inhibition of the expression of TPO [1]: ~100%
inhibition of the expression of TG [2]: ~100%
thyroid size (visually compared) [3]: effectively reduced thyroid sizes; also recorded: nearly restored to normal levels
serum thyroxine (T4) concentration [4]: significant reduction; also recorded: more effective

IC50 (thyroid peroxidase (TPO)): 0.02 µM
SMILES: COc1ccc(-c2nc3cc(C)ccn3c2Nc2ccc3c(c2)OCO3)cc1 [NE-2-7, N-(2H-1,3-BENZODIOXOL-5- YL)-2-(4-METHOXYPHENYL)-7- METHYLIMIDAZO[1,2- A]PYRIDIN-3-AMINE]
